According to patent US20230406849A1, “KRAS INHIBITORS FOR TREATMENT OF CANCERS” (TYLIGAND BIOSCIENCE (SHANGHAI) LIMITED, priority 2020, published 2023):

Columns and labels:
Assay in all cases: CYP inhibition in human liver microsomes
Assay type in all cases: in vitro ADME
[1] = target: T1, CYP2C9 (Homo sapiens, UniProt P11712); details: pH 7.4, read-out: CYP inhibition rate (%) 2C9
T1 construct: Human liver microsomes (Corning, Cat #452161); tissue Corning 452161; host or cells: human liver microsomes
Text: (§1) The inhibitory effect of the compounds of the present disclosure on the cytochrome P450 enzyme system was investigated in this assay.
(§2) [Test materials]: Human liver microsomes (Corning, Cat #452161); Reduced nicotinamide adenine dinucleotide phosphate (NADPH, MCE, Cat #HY-F0003/CS-4998); Phenacetin, Diclofenac, α-naphthoflavone, Omeprazole and Ketoconazole were purchased from TCI; S-Mephenytoin and testosterone were purchased from CAYMAN; Midazolam was purchased from Bioreclamation IVT; Quinidine was purchased from Damas-beta; Sulfaphenazole was purchased from MCE; Bufuralol was purchased from TRC.
(§3) [Experimental procedure]: Preparation of 0.1M potassium phosphate buffer (K-buffer): 100 mM potassium phosphate buffer (K-buffer) was prepared with potassium dihydrogen phosphate and dipotassium hydrogen phosphate, and adjusted to pH 7.4.
(§4) Preparation of 400× test compound and reference inhibitor solutions: 8 μL of 10 mM stock solution of the test compounds was mixed with 12 μL of acetonitrile. Preparation of inhibitor cocktail solution for CYP1A2, CYP2C9 and CYP2D6: […] of 1 mM α-naphthoflavone, 10 µL of 40 mM Sulfaphenazole, 10 μL of 10 mM Quinidine and 8 μL DMSO were mixed. Preparation of inhibitor cocktail solution for CYP3A4 and CYP2C19: 8 μL of DMSO solution was mixed with 12 μL of acetonitrile.
(§5) Preparation of 4×NADPH potassium phosphate solution: 66.7 mg of NADPH was added to 10 mL of K-buffer pH7.4. Preparation of 4× substrate potassium phosphate solution: the different substrates were prepared to 4-fold concentration test solutions with 10 mL 0.1M K-buffer according to the concentration requirements.
(§6) Preparation of 0.2 mg/mL human liver microsomes (HLM) solution: […] of 20 mg/mL human liver microsomes was added to […] K-buffer, and the solution was stored in ice bath until use.
(§7) 600 μL of 0.2 mg/mL HLM was added to a 96-well plate, followed by the addition of 3 μL of a 400-fold test compound solution; 200 μL of 0.2 mg/mL HLM was added to a 96-well plate, and 1 μL of the diluted positive control inhibitor solution was added. 30 μL of the compound solution mixed with human liver microsomes was added into a 96-well plate, and 15 μL of substrate solution was added then. The solutions obtained above, and the prepared NADPH solution were pre-incubated at 37° C. for 5 min. 15 μL of the pre-warmed NADPH solution was added to the reaction plate, mixed well, to initiate the reaction. The reaction plate was incubated at 37° C., for 5 minutes (3A4), for 10 minutes (1A2, 2C9, 2D6), for 45 minutes (2C19). At the end of the reaction, 120 μL of acetonitrile containing internal standard was added to quenched the reaction. Samples were vortexed for 10 min, centrifuged at 5594 g for 15 min, and prepared for LC-MS/MS analysis.

[2] = target: T2, CYP1A2 (Homo sapiens, UniProt P05177); details: pH 7.4, read-out: CYP inhibition rate (%) 1A2
T2 construct: Human liver microsomes (Corning, Cat #452161); tissue Corning 452161; host or cells: human liver microsomes
T2 sequence (P05177 1-516): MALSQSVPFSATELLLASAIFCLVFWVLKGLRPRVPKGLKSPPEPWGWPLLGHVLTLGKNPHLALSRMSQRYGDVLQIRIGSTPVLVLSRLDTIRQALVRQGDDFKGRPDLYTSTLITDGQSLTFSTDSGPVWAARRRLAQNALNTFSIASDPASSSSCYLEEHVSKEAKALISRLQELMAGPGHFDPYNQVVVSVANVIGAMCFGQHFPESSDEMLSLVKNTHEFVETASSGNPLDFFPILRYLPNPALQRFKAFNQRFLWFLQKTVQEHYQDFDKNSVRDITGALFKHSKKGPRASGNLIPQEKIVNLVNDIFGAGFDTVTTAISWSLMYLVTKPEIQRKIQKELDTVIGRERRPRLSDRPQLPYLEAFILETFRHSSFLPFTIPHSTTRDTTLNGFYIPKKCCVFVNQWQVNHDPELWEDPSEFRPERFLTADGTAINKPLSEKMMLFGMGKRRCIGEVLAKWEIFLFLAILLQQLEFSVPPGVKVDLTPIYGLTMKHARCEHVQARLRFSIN
Text: as §1, §2, §3, §4, §5, §6, §7

[3] = target: T3, CYP2C19 (Homo sapiens, UniProt P33261); details: pH 7.4, read-out: CYP inhibition rate (%) 2C19
T3 construct: Human liver microsomes (Corning, Cat #452161); tissue Corning 452161; host or cells: human liver microsomes
Text: as §1, §2, §3, §4, §5, §6, §7

T1 sequence (P11712 whole entry): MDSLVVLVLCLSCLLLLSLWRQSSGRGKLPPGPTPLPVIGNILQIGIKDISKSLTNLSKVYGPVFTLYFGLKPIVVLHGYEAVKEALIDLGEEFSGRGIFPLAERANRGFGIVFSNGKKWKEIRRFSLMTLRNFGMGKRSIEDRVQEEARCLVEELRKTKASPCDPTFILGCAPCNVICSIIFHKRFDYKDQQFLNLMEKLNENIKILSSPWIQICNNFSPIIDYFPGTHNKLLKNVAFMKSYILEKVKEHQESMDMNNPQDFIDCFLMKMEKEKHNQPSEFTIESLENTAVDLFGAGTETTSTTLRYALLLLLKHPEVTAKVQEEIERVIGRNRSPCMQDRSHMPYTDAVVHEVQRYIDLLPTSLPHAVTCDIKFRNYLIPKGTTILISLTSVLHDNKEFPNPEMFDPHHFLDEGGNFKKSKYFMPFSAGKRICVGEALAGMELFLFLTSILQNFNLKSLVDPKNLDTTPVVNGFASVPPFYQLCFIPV
T3 sequence (P33261 whole entry): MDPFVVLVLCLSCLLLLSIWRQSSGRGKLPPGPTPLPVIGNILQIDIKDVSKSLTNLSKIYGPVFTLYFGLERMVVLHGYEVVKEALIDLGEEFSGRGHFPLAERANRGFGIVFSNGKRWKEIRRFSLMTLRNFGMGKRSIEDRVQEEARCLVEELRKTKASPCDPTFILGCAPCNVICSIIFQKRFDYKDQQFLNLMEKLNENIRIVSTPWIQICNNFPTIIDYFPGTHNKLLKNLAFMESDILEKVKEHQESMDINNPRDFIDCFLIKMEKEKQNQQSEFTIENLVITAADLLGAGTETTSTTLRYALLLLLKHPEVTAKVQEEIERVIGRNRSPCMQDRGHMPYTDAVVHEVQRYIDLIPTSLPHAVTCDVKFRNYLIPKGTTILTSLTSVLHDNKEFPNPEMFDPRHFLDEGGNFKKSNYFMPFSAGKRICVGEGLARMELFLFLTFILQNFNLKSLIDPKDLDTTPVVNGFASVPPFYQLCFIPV

Compound	inhibition at 10 min, 10 µM [1] [%]	inhibition at 10 min, 10 µM [2] [%]	inhibition at 45 min, 10 µM [3] [%]
C=CC(=O)N1CCN(c2nc(=O)n(-c3c(C)ccnc3C(C)C)c3nc(-c4c(O)cccc4F)c(F)cc23)[C@@H](C)C1 (atropisomer, axis not shown) [AMG510, reference compound]	26.2	10.3	11.1
C=CC(=O)N1CCN(c2ncnc3c(F)c(-c4ccc(F)c5sc(N)nc45)c(Cl)cc23)CC1 [Ref. Comp. A, reference compound]	52.4	73	74.3
C=CC(=O)N1CCN(c2c(C#N)cnc3c(F)c(-c4ccc(F)c5sc(N)nc45)c(Cl)cc23)CC1 [Example 9, 4-(4-Acryloylpiperazin-1-yl)-7-(2-amino-7-fluorobenzo[d]thiazol-4-yl)-6-chloro-8-fluoroquinoline-3-carbonitrile]	42.5	13.6	34.9
C=CC(=O)N1CCN(c2c(C#N)cnc3c(F)c(-c4ccc(F)c5sc(N)nc45)c(Cl)cc23)C[C@H]1C [Example 8, 4-((R)-4-acryloyl-3-methylpiperazin-1-yl)-7-(2-amino-7-fluorobenzo[d]thiazol-4-yl)-6-chloro-8-fluoroquinoline-3-carbonitrile]	49.9	17.6	31.2
